Earlier results in patent US20190328719A1, “METHODS OF TREATING DEVELOPMENTAL DISORDERS AND/OR SEIZURE DISORDERS WITH FLUPIRTINE” (Ovid Therapeutics Inc., priority 2016, published 2019).
Where a name gives a salt, the structure may show the parent alone. Read-outs that look alike come from different tables or passages of the source.

Assays:
[1] = cited from earlier work; for plasma elimination half-life: healthy young volunteers, single dose
[2] = cited from earlier work
[3] = cited from earlier work; remark: listed apart in the source
[4] = three-month efficacy study, insomnia; cited from earlier work
[5] = patients with a history of drug abuse; cited from earlier work
[6] = cited from earlier work; for Cmax (without correction for Cmin): 14 days of administration
[7] = cited from earlier work; remark: listed apart in the source
[8] = dose range 200-400 mg three times daily

In the case of CCOC(=O)Nc1ccc(NCc2ccc(F)cc2)nc1N [flupirtine], the “time to steady-state plasma concentrations” value ([1]; 75 or 150 mg at 12 hour intervals) is listed as 2 days, the plasma elimination half-life ([1]; intravenous) is listed as “about 8.5 hours” and the plasma elimination half-life ([1]; oral) is listed as about 9.6 h. For the same compound, the plasma elimination half-life ([1]; rectal) was about 10.7 h, the “half-life following intravenous administration” value ([1]; intravenous) was “about 1.8 hours” and the “relation of plasma concentrations to dose” value ([1]; range of 50 to 300 mg) was “linearly related to dose”. For the same compound, the Bioavailability ([1]; rectal dose, in comparison with intravenous flupirtine tartrate 80 mg) was “about 72.5%”, the “time until it appears in the plasma” value ([1]; single oral dose 100 mg or 200 mg, healthy volunteers) was 15 to 30 min and the “peak plasma concentration (Cmax)” value ([1]; single oral dose 100 mg) was “approximately 0.8 mg/L”. The “peak plasma concentration (Cmax)” value ([1]; single oral dose 200 mg) was about 2.0 mg/L and the water solubility [2] was “poorly water soluble”.

For CCOC(=O)Nc1ccc(NCc2ccc(F)cc2)cc1N [retigabine, N-[2-amino-4-(4-fluorobenzylamino)-phenyl] carbamic acid ethyl ester], the between-subject variability [3, 8] is given as 35-50%, the linearity of pharmacokinetics [3, 8] is given as “linear” and the “elimination half-lives (t/2)” value ([3]; in vivo) is given as 7 to 11 h. The median plasma half-life ([3]; in vivo) was 6 to 8 h and the Absolute oral bioavailability ([3]; relative to an intravenous dose) was “approximately 60%”.

In the case of Oc1noc2c1CCNC2 [gaboxadol, 4,5,6,7-tetrahydroisoxazolo [5,4-c]pyridine-3-ol], the “effects in sleep onset and sleep maintenance” value [4] is given as “failed to show significant effects in sleep onset and sleep maintenance” and the psychiatric adverse events [5] is given as “steep increase in psychiatric adverse events”.

In the case of CC(=O)[C@H]1CC[C@H]2[C@@H]3CC[C@H]4C[C@](C)(O)CC[C@]4(C)[C@H]3CC[C@]12C [ganaxolone], the Cmin ([6]; 50 mg group) is listed as 2.34 ng/mL, the Cmin ([6]; 200 mg group) is listed as 23.79 ng/mL and the Cmin ([6]; 500 mg group) is listed as 56.71 ng/mL. The “Cmax (without correction for Cmin)” value ([6]; 50 mg group) was 32 ng/mL, the “Cmax (without correction for Cmin)” value ([6]; 200 mg group) was 106 ng/mL and the “Cmax (without correction for Cmin)” value ([6]; 500 mg group) was 376 ng/mL. The “AUC and Cmax with increasing dose” value ([6]; in vivo) was “linear and proportional increase”, the half-life ([6]; in vivo) was “about 20 hours” and the Cmax ([6]; single 900 mg dose) was 293 ± 63.8 ng/mL.

In the case of OC(c1ccccc1)(c1ccccc1)C1CCCCN1 (stereo not drawn) [pipradrol], the “effects of high doses” value [7] is given as “uncoordinated activity and ataxia, followed by tremors and clonic convulsions”.

In the case of CCOC(=O)Nc1ccc(NCc2ccc(F)cc2)nc1N [flupirtine maleate], the Cmax ([1]; rectal, flupirtine maleate 150 mg) is given as “about 0.89 mg/L” and the water solubility ([2]; listed as maleate salt) is given as “water soluble”.
